Measured values as given in ChEMBL document CHEMBL1201862, “PubChem BioAssay data set” (2004).
Active and inactive are the calls of the source.

Legend:
[1] = biological target: T1, Corticotropin-releasing factor receptor 2/Corticotropin-releasing factor-binding protein (Homo sapiens, UniProt P24387+Q13324); experiment: activators of CRF receptor 2 with binding protein – uHTS hits, confirmation (AID 602473); type: functional; settings: read-out: EC50_Mean
T1 sequence (Q13324 whole entry): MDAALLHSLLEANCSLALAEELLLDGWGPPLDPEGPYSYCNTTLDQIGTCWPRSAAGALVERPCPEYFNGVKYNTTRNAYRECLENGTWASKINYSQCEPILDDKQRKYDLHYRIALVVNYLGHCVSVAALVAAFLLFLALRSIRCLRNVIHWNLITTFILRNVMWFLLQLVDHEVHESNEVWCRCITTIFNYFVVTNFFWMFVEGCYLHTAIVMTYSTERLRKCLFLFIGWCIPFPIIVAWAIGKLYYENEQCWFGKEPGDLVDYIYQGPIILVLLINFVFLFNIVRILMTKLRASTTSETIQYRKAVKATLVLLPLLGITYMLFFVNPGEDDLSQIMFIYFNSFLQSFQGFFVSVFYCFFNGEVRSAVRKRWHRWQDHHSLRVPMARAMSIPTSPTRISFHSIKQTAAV
T1 sequence (P24387 whole entry): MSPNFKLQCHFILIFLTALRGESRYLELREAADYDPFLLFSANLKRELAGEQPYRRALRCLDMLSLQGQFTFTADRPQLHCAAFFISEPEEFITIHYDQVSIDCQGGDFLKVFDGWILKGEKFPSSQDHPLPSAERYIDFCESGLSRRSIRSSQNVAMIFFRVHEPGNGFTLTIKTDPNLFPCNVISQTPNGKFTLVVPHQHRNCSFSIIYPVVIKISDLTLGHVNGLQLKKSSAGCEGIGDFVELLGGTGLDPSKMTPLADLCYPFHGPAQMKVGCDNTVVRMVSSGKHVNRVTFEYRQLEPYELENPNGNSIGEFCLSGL

[2] = blockers of CRF-binding protein–CRF-R2 complex – cell-based, uHTS hits, 384-well, dose response (AID 651639); type: functional, Homo sapiens; settings: read-out: IC50_Mean
[3] = biological target: T1, Corticotropin-releasing factor receptor 2/Corticotropin-releasing factor-binding protein; experiment: Dose Response confirmation of uHTS hits for small molecule antagonists of the CRF-binding protein and CRF-R2 receptor complex.; type: functional; settings: read-out: IC50_Mean
[4] = biological target: Induced myeloid leukemia cell differentiation protein Mcl-1 (Homo sapiens, UniProt Q07820); type: functional
Sequence of Induced myeloid leukemia cell differentiation protein Mcl-1 (Q07820 whole entry): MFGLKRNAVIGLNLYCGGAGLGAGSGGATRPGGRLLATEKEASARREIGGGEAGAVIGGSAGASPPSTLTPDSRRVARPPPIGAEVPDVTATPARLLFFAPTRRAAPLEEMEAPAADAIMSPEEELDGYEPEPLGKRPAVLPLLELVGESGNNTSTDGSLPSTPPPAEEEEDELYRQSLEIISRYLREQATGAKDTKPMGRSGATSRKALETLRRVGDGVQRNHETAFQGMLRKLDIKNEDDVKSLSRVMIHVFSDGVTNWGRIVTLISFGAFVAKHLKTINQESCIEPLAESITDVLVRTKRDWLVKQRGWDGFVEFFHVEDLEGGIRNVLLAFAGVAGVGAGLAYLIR

Bcl-2-like protein 10 = biological target: T2, Bcl-2-like protein 10 (Homo sapiens, UniProt Q9HD36); experiment: Bcl-B/TR3 peptide binding disruption – biochemical, fluorescence polarization, FITC-TR3 peptide, selectivity assay for Bfl-1 inhibitor project, primary screen (AID 748);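 further: fluorescence polarization from a fluorescein-labelled TR3 peptide binding purified Bcl-B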
T2 sequence (Q9HD36 whole entry): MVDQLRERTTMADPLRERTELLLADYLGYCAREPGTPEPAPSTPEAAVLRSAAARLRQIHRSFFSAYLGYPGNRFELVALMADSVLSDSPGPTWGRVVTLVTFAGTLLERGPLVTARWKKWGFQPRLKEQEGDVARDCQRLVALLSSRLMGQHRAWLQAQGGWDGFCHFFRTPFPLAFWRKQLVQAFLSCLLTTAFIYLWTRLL

Prothrombin = Prothrombin (Homo sapiens, UniProt P00734); experiment: Thrombin 1536 HTS Dose Response Confirmation. [Related pubchem assays: 1046 (Thrombin 1536 HTS; hits were confirmed in this assay)]; type: functional
HEK293 [5] = experiment: optical interference in Abeta FP readout, dose response, artefact control for IDE activator project, biochemical, fluorescence polarization (AID 588442); type: functional, cell-based; settings: Homo sapiens
HEK293 [6] = experiment: membrane integrity loss in HEK cells – cell-based, fluorescence, cytotoxicity control for IDE activator project, dose response (AID 588440); type: functional; settings: Homo sapiens;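 further: cytotoxicity by LDH release measuring loss of membrane integrity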
Insulin-degrading enzyme [7] = biological target: T3, Insulin-degrading enzyme (Homo sapiens, UniProt P14735); experiment: recombinant IDE activation, cell-free – biochemical, fluorescence polarization, counter-screen for IDE activator project, dose response (AID 588681)
T3 sequence (P14735 whole entry): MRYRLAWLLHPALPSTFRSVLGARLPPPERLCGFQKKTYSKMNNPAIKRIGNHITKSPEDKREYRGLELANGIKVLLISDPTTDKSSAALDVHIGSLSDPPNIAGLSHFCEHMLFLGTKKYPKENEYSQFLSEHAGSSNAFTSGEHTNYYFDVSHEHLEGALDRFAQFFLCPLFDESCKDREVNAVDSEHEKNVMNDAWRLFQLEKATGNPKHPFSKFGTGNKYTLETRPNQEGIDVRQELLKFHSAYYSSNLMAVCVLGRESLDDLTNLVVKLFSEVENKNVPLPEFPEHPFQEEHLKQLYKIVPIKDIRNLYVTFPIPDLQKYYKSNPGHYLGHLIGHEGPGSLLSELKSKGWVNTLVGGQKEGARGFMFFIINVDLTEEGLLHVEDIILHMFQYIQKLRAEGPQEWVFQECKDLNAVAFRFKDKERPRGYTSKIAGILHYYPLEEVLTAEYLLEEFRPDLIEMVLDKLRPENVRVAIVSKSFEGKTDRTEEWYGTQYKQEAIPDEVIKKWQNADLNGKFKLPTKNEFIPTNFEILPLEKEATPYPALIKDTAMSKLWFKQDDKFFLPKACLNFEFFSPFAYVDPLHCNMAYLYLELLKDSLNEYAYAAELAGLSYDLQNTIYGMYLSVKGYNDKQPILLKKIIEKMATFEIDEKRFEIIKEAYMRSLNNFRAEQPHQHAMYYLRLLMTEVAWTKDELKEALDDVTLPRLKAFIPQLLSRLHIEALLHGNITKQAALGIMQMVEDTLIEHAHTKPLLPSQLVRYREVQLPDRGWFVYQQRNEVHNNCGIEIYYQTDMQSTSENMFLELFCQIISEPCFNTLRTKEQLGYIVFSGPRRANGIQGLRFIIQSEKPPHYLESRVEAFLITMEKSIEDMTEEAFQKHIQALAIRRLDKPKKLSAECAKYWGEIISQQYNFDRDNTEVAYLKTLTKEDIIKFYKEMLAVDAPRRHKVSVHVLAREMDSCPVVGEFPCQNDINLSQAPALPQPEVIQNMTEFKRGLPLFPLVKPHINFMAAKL

Insulin-degrading enzyme [8] = biological target: T3, Insulin-degrading enzyme; experiment: cellular IDE activation of Abeta substrate cleavage – fluorescence polarization, HEK cells, dose response (AID 588439); type: functional, cell-based
[9] = biological target: T4, DNA repair protein RAD52 homolog (Homo sapiens, UniProt P43351); type: functional, biochemical
T4 sequence (P43351 whole entry): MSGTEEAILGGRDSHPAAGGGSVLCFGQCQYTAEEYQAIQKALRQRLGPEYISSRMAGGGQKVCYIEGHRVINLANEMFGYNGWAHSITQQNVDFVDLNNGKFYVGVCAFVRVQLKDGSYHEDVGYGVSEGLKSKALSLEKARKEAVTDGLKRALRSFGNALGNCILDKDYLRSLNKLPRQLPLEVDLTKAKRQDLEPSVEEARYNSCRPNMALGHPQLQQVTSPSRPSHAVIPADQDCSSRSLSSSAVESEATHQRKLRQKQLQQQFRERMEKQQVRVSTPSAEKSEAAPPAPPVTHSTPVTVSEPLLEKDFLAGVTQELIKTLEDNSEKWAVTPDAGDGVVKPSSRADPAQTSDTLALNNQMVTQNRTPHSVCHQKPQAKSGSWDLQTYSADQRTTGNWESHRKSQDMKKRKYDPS

[10] = biological target: T5, Ubiquitin-conjugating enzyme E2 N (Homo sapiens, UniProt P61088); type: functional;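 further: Dose-response confirmation in a TR-FRET assay detecting UBC13-driven polyubiquitin chain formation, inhibition measured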
T5 sequence (P61088 whole entry): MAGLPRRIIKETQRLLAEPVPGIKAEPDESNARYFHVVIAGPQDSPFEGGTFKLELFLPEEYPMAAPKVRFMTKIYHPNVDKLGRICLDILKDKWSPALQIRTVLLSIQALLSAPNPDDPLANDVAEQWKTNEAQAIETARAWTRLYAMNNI

[11] = Vero E6 cell cytotoxicity, dose response, cytotoxicity control for non-replicating M. tuberculosis project, secondary assay (AID 492998); type: functional, VeroE6; settings: Vero C1008
cells = type: functional
INS1 = experiment: INS-1E survival protection against cytokine death – cell-based, luminescence, retest, dose response (AID 449756); type: functional; settings: Rattus norvegicus;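 further: cell death triggered by IL-1 beta plus TNF-alpha plus IFN-gamma mixture; protective hits raise ATP signal compared with cytokine alone wells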
[12] = THP-1 cell cytotoxicity, dose response, cytotoxicity control for non-replicating M. tuberculosis project (AID 489025); type: functional
[13] = biological target: Eukaryotic translation initiation factor 4E (Mus musculus, UniProt P63073); experiment: blockers of eIF4G binding by eIF4E – biochemical, TR-FRET, dose response (AID 855); type: functional;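 further: potency for disrupting eIF4E binding to eIF4GI seen as loss of FRET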
Sequence of Eukaryotic translation initiation factor 4E (P63073 whole entry): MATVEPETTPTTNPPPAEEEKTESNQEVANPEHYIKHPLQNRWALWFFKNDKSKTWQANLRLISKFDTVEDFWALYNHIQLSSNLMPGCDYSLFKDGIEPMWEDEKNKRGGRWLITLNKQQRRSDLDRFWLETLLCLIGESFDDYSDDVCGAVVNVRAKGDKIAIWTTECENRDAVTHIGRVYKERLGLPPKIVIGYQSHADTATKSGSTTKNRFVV

Paired box protein Pax-8 = Paired box protein Pax-8 (Homo sapiens, UniProt Q06710); experiment: PAX8 transcriptional activity inhibition in RMG-I – RMG-I cells, luciferase, cherry-pick, dose response (AID 687027); type: functional, cell-based;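 further: luciferase reporter driven by Pax8 target thyroperoxidase promoter measured by SteadyGlo luminescence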
Sequence of Paired box protein Pax-8 (Q06710 whole entry): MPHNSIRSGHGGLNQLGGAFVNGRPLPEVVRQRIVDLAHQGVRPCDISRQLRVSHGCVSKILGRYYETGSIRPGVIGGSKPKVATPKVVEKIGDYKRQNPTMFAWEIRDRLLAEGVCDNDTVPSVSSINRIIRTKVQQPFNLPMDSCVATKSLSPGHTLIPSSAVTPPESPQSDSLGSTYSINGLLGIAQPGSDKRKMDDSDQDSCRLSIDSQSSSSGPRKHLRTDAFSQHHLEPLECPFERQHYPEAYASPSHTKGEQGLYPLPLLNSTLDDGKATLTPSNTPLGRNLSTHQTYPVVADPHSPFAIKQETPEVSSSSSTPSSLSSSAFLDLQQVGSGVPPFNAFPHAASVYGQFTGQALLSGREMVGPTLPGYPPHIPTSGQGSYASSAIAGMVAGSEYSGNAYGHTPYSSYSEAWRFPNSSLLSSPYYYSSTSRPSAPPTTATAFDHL

[14] = OVCAR-3 cell viability loss – plate reader, dry powder samples, PAX8 inhibitor project, dose response (AID 743044); type: functional, cell-based
[15] = general cell-killing toxicity readout – plate reader, dry powder samples, cytotoxicity control for PAX8 inhibitor project, dose response (AID 743021); type: functional, cell-based
[16] = blockers of HIV-1 envelope-mediated cell-cell fusion – cherry-pick, dose response (AID 652057); type: functional, cell-based
[17] = HIV-1 AD8 envelope cell-cell fusion blockers – cherry-pick, dose response (AID 652062); type: functional, cell-based;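 further: luciferase signal from cell-cell fusion driven by HIV-1 clade B AD8 Env; potency is for inhibitors of fusion seen as a drop in luminescence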
[18] = blockers of HIV-1 ZM109 envelope-driven cell-cell fusion – HeLa effector, CEM target cells, luciferase, cherry-pick, dose response (AID 652058); type: functional, cell-based;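 further: luciferase signal from HIV-1 Env mediated cell-cell fusion of effector and target cells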

CN(C)c1ccc(C=C2C(=O)OC(C)(C)OC2=O)cc1
EC50 [1]: > 53 µM (inactive) | IC50 [2]: 7.91 µM (active) | IC50 [3]: 5.16 µM (active)

Cc1ccc(OCC(=O)Nc2ccc(N3CCCC3)cc2)cc1C
IC50 [4]: 6.68 µM (active) | IC50 (Bcl-2-like protein 10): 40.8 µM (active)

O=C(COC(=O)CCC(=O)c1cccs1)Nc1ccccc1[N+](=O)[O-]
IC50 (Prothrombin): 6.93 µM (active)

Nc1cc(N)nc(SCCOc2ccccc2)n1
EC50 (HEK293 [5]): > 55.9 µM (inactive) | IC50 (HEK293 [6]): > 89.2 µM (inactive) | EC50 (Insulin-degrading enzyme [7]): > 54.7 µM (inactive) | EC50 (Insulin-degrading enzyme [8]): > 54.7 µM (inactive)

COc1ccc(N2C(=O)/C(=C/Nc3ccccc3)c3ccccc3C2=O)cc1
IC50 (Prothrombin): > 50 µM (not active)

Cn1c(C(C#N)C2=C(Cl)C(=O)N(c3ccccc3)C2=O)nc2ccccc21 (stereo unspecified)
IC50 (Bcl-2-like protein 10): 16.5 µM (active)

CCS(=O)(=O)NCc1ccc2c(c1)cc(C)n2C
IC50 (Bcl-2-like protein 10): > 50 µM (inactive)

ClCCN1CCN(c2ccnc3cc(Cl)ccc23)CC1
AC50 [9]: 17.2 µM (active) | IC50 [10]: > 20 µM (inactive)

Cc1cc(C)nc(-n2nc(C)cc2Nc2ccccc2)n1
CC50 [11]: > 20 µM (active) | IC50 (Prothrombin): > 50 µM (not active) | IC50 (cells): 0.5 µM (active) | AC50 (INS1): 2.91 µM (active) | CC50 [12]: > 40 µM (active)

CC(NC(=O)CN(C1CCCCC1)S(C)(=O)=O)c1ccccc1 (stereo unspecified)
IC50 (Prothrombin): > 50 µM (not active)

O=c1[nH]nc(SCc2nnc(-c3ccc([N+](=O)[O-])cc3)o2)n1C1CCCCC1
IC50 (Prothrombin): 4.04 µM (active)

CC(=O)Nc1ccc(Nc2nc3ccccc3nc2NS(=O)(=O)c2ccc(Cl)c([N+](=O)[O-])c2)cc1
EC50 [1]: > 53 µM (inactive) | IC50 [2]: 10.2 µM (active) | IC50 [3]: 6.14 µM (active)

CCCCC[C@@H]1C=C(C(=O)O)[C@H](c2cccc(C)c2)N1S(=O)(=O)c1ccc(C)cc1
EC50 [1]: 40.7 µM (active) | IC50 [2]: > 20 µM (inactive) | IC50 [3]: 36.6 µM (active)

CN(c1ccccc1)S(=O)(=O)c1cccc(NC(=O)COc2cccc([N+](=O)[O-])c2)c1
EC50 [1]: > 53 µM (inactive) | IC50 [2]: > 20 µM (inactive) | IC50 [3]: > 23.6 µM (inactive) | EC50 (HEK293 [5]): > 55.9 µM (inactive) | IC50 (HEK293 [6]): > 89.2 µM (inactive) | EC50 (Insulin-degrading enzyme [7]): > 54.7 µM (inactive) | EC50 (Insulin-degrading enzyme [8]): > 54.7 µM (inactive)

COc1ccc(OC)c(C(=O)COC(=O)CN2C(=O)NC3(CCCCC3C)C2=O)c1 (stereo unspecified)
EC50 (HEK293 [5]): > 55.9 µM (inactive) | IC50 (HEK293 [6]): > 89.2 µM (inactive) | EC50 (Insulin-degrading enzyme [7]): > 54.7 µM (inactive) | EC50 (Insulin-degrading enzyme [8]): > 54.7 µM (inactive)

CO/N=C/C(C#N)c1ncc(C(F)(F)F)cc1Cl (stereo unspecified)
EC50 [1]: 5.81 µM (active) | IC50 [2]: 6.73 µM (active) | IC50 [3]: 4.92 µM (active) | IC50 [13]: > 64 µM (inactive)

C[C@@H]1CN([C@H](C)CO)C(=O)c2cc(NC(=O)Nc3ccc(C(F)(F)F)cc3)ccc2O[C@@H](C)CCCCO[C@@H]1CN(C)C(=O)NC1CCCCC1
AC50 (Paired box protein Pax-8): 4.46 µM (active) | AC50 [14]: 35.7 µM (active) | AC50 [15]: 2.66 µM (active)

C[C@@H]1CN([C@@H](C)CO)C(=O)Cc2cc(NS(=O)(=O)c3cccs3)ccc2O[C@H]1CN(C)Cc1ccc(C(F)(F)F)cc1
AC50 (Paired box protein Pax-8): 5.33 µM (active) | AC50 [14]: 32.8 µM (active) | AC50 [16]: 10.1 µM (active) | AC50 [17]: 25.8 µM (active) | AC50 [18]: 1.39 µM (active)

Cc1ccc(S(=O)(=O)Nc2ccc3c(c2)CC(=O)N([C@H](C)CO)C[C@H](C)[C@H](CN(C)S(=O)(=O)c2ccc(F)cc2)O3)cc1
AC50 (Paired box protein Pax-8): 25.3 µM (active) | AC50 [14]: 59.2 µM (active) | AC50 [16]: 5.23 µM (active) | AC50 [17]: 4.36 µM (active) | AC50 [18]: 5.04 µM (active)
